Key:
[1] = system: HuPrime® cervical xenograft model CV1248 [P3]; assay: Anti-tumor efficacy of tisotumab vedotin with carboplatin in cervical cancer PDX mouse model; format: in vivo, BALB/c nude mice; settings: alone; tisotumab vedotin 2 mg/kg, carboplatin 40 or 80 mg/kg; FIGS. 3A and 3B
Description: The in vivo anti-tumor efficacy of tisotumab vedotin in combination with carboplatin was evaluated in a patient-derived xenograft (PDX) mouse model in female BALB/c nude mice (Crown Bioscience [Taicang] Inc.). Xenografts were derived from tumor specimens from cancer patients. Tumor fragments were obtained from xenografts in serial passage in nude mice. Tumors were cut into fragments of 2-4 mm diameter and placed in phosphate-buffered saline (PBS) until subcutaneous implantation. A cervical cancer PDX model (HuPrime® cervical xenograft model CV1248 [P3]; Crown Bioscience Inc.) was used in this experiment. Tumor size was determined by caliper measurement at least two times a week and tumor volume was calculated as 0.5×length× width^2. When tumors reached an average volume of 150 mm^3, mice were randomized in 7 groups (10 mice per treatment group). The day of randomization was designated day 0. Mice were treated with the following by intravenous injections: 1) tisotumab vedotin alone at a dose level of 2 mg/kg, provided on day 0, day 7 and day 14; 2) carboplatin (Selleck Chemicals, cat. no. […]

[2] = system: HuPrime® cervical xenograft model CV1248 [R4P5]; assay: Anti-tumor efficacy of tisotumab vedotin with cisplatin in cervical cancer PDX mouse model; format: in vivo, BALB/c nude mice; settings: alone, tisotumab vedotin 2 mg/kg and 4 mg/kg, cisplatin 4 mg/kg; for tumor growth: FIG. 1A-C; for survival: tumor size cut-off 1000 mm^3, FIGS. 1D and 1E
Description: The in vivo anti-tumor efficacy of tisotumab vedotin in combination with cisplatin was evaluated in a patient-derived xenograft (PDX) mouse model in BALB/c nude mice (Crown Bioscience Inc.). Xenografts were derived from tumor specimens from cancer patients. Establishment and characterization of the PDX model was performed following primary implantation into nude mice. Tumor xenografts were passaged approximately three to five times until establishment of stable growth patterns. Tumor fragments were obtained from xenografts in serial passage in nude mice. Tumors were cut into fragments of 2-3 mm diameter and placed in phosphate-buffered saline (PBS) until subcutaneous implantation. A cervical cancer PDX model (HuPrime® cervical xenograft model CV1248 [R4P5]; Crown Bioscience Inc.) was used in this experiment. Tumor size was determined by caliper measurement at least two times a week and tumor volume was calculated as 0.5×length×width^2. When tumors reached the volume of 200 mm^3, mice were randomized in 11 groups (7-8 mice per treatment group). Mice were treated with the following by intravenous injections: 1) tisotumab vedotin alone at a dose level of 0.5 mg/kg, 1 mg/kg, 2 mg/kg or 4 mg/kg provided on day 0 and day 7 of treatment; 2) cisplatin alone at a dose of 4 mg/kg provided on day 0, day 7 and day 14 of treatment; 3) tisotumab vedotin at a dose level of 0.5 mg/kg, 1 mg/kg, 2 mg/kg or 4 mg/kg provided on day 0 and day 7 of treatment in combination with cisplatin at a dose of 4 mg/kg provided on day 0, day 7 and day 14 of treatment; 4) IgG1 isotype control at a dose of 4 mg/kg provided on day 0 and day 7 of treatment; or 5) IgG1-MMAE control at a dose of 4 mg/kg provided on day 0 and day 7 of treatment. […] Mice were housed in individually ventilated (IVC) cages, four or five mice per cage and identified by ear tags.
To determine whether there were statistically significant differences between tumor volumes in control and treatment groups, tumor volumes in the treatment groups were compared with those in the control group (e.g., treatment groups vs IgG1-MMAE control) using Mann-Whitney analysis at the last day that all groups were intact, i.e., day 38. For survival analysis (tumor volume cut-off was 1,000 mm^3). Mantel-Cox analysis was performed on Kaplan-Meier plots with a cut-off set at tumor volume >1,000 mm^3.

[3] = system: bladder xenograft model BXF1036; assay: Anti-tumor efficacy of tisotumab vedotin with cisplatin in bladder cancer PDX mouse model; format: in vivo, Crl:NMRI-Foxn1^nu nude mice; settings: alone; for tumor growth: tisotumab vedotin 0.5 mg/kg, cisplatin 2 mg/kg, FIG. 2A-C; for survival: tumor size cut-off 500 mm^3, FIG. 2D
Description: The in vivo anti-tumor efficacy of tisotumab vedotin in combination with cisplatin was evaluated in a PDX mouse model in female Crl:NMRI-Foxn1^nu (Envigo RMS SARL, France) nude mice (Charles River Discovery Research Services). Xenografts were derived from tumor specimens from cancer patients. Establishment and characterization of the PDX model was performed following primary implantation into nude mice. Tumor xenografts were passaged approximately three to five times until establishment of stable growth patterns. Tumor fragments were obtained from xenografts in serial passage in nude mice. Tumors were cut into fragments of 3-4 mm diameter and placed in phosphate-buffered saline (PBS) until subcutaneous implantation. A bladder cancer PDX model (bladder xenograft model BXF1036; Charles River Discovery Research Services) was used in this experiment. Tumor size was determined by caliper measurement at least two times a week and tumor volume was calculated as 0.52×length×[…]. When tumors reached the volume of 50-250 mm^3, mice were randomized in 5 groups (10 mice per treatment group). Mice were treated with the following: 1) tisotumab vedotin alone at a dose level of 0.5 mg/kg provided on day 1 of treatment; 2) cisplatin alone at a dose of 2 mg/kg provided on day 1 and day 8 of treatment; 3) tisotumab vedotin at a dose level of 0.5 mg/kg provided on day 1 of treatment in combination with cisplatin at a dose of 2 mg/kg provided on day 1 and day 8 of treatment; 4) IgG1 isotype control at a dose of 0.5 mg/kg provided on day 1 of treatment; or 5) IgG1-MMAE control at a dose of 0.5 mg/kg provided on day 1 of treatment. IgG1 isotype control, IgG1-MMAE control and tisotumab vedotin were each in PBS and injected intravenously. Cisplatin was in 0.9% NaCl and injected subcutaneously. […] Mice were housed in individually ventilated (IVC) cages, with a maximum of five mice per cage, and identified by ear tags.
To determine whether there were statistically significant differences between tumor volumes in control and treatment groups, tumor volumes in the treatment groups were compared with those in the control groups (e.g., IgG1-MMAE control, tisotumab vedotin alone or cisplatin alone) using Mann-Whitney analysis at the last day that all groups were intact, i.e., day 25. Statistical analysis of the difference between groups treated with tisotumab vedotin in combination with cisplatin and groups treated with either tisotumab vedotin alone or cisplatin alone was performed on day 32.
Tumor progression was plotted in a Kaplan-Meier plot, with a cut-off set at a tumor volume >500 mm^3. […]

[4] = system: relapsed, recurrent, and/or metastatic cervical cancer; settings: cited from earlier work

With `N.N.O=C([O-])C1(C(=O)[O-])CCC1.[Pt+2]` [Carboplatin, reference compound] the tumor growth [1] was “did not inhibit tumor growth”.
With `N.N.[Cl][Pt][Cl]` [Cisplatin, reference compound] the tumor growth [2] was “inhibited tumor growth”, the survival [2] was “prolonged survival” and the tumor growth [3] was “inhibited tumor growth”. The survival [3] was “prolonged survival”.
With “Tisotumab vedotin: antibody-drug conjugate comprising an antibody that binds to tissue factor (TF), a protease-cleavable linker, and the microtubule disrupting agent MMAE” the tumor growth [2] was “efficiently inhibited tumor growth”, the survival [2] was “prolonged survival” and the tumor growth [1] was “efficiently inhibited tumor growth”. For the same molecule, the tumor growth [3] was “efficiently inhibited tumor growth”, the survival [3] was “prolonged survival” and the efficacy ([4]; 2.0 mg/kg) was “robust efficacy”. The safety profile ([4]; 2.0 mg/kg) was “manageable safety profile”, the “grade of reported peripheral neuropathy cases” value ([4]; in vivo) was “majority of the reported cases are grade 1-2” and the “Epistaxis (bleeding AE)” value ([4]; nearly all of the cases are grade 1) was “most common reported AE”. The “subjects with peripheral neuropathy” value ([4]; subjects who received treatment with tisotumab vedotin) was “approximately 35%”.

Reference: US12246025B2, “Methods of treating cancer with a combination of a platinum-based agent and an anti-tissue factor antibody-drug conjugate” (priority 2018, dated 2025)
